Earlier results in patent publication US20080021074A1, “Pharmaceutical Compositions and Related Methods of Treatment” (QUESTCOR PHARMACEUTICALS, INC., priority 2006, published 2008).
Where a name gives a salt, the structure may show the parent alone.

Tests used:
mice = conditions: single administration
monkeys = conditions: single administration
CYP1A2 [1] = conditions: primary human hepatocyte cultures, concentration-dependent
CYP2B6 = conditions: primary human hepatocyte cultures, concentration-dependent
CYP3A4 = conditions: primary human hepatocyte cultures, concentration-dependent
CYP2C19 = CYP2C19 (Homo sapiens, UniProt P33261)
[2] = tizanidine and baclofen combined
CYP1A2 [3] = biological target: CYP1A2 (Homo sapiens, UniProt P05177); conditions: in vitro
spasticity = conditions: clinical studies

CYP2C19, sequence (P33261 whole entry): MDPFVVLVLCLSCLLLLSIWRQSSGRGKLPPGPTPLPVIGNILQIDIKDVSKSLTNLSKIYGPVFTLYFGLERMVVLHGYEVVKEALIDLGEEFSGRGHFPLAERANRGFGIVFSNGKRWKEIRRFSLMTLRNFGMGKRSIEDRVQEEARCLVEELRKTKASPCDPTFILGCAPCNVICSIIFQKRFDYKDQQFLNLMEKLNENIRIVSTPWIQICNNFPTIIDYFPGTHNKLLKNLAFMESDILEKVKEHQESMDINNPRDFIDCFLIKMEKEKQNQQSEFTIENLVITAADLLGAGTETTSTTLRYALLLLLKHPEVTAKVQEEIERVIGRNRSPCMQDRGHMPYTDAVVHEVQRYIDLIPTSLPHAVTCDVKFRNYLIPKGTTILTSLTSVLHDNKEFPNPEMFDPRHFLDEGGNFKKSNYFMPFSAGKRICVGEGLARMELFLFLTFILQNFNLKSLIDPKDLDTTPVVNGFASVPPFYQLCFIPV
CYP1A2 (Homo sapiens, UniProt P05177), sequence (P05177 whole entry): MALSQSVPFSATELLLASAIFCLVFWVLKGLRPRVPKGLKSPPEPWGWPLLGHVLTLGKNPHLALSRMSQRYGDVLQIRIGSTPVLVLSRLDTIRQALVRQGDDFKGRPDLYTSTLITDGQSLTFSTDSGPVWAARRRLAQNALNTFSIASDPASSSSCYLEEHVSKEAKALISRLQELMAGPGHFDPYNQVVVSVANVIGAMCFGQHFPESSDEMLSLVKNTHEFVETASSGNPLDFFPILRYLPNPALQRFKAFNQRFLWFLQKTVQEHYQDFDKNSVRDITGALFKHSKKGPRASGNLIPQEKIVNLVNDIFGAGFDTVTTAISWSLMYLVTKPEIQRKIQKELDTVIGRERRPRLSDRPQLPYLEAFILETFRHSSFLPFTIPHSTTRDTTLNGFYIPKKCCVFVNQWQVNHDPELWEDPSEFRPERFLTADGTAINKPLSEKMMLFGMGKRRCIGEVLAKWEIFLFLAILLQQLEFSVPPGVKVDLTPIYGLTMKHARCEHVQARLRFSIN

NC(=O)C[S+]([O-])C(c1ccccc1)c1ccccc1 (stereo not drawn) [Modafinil, 2-[(diphenylmethyl)sulfinyl]acetamide]
locomotor activity (mice): increased locomotor activity
nocturnal activity (monkeys): increased nocturnal activity
induction of CYP1A2 (CYP1A2 [1]): slightly induce
induction of CYP2B6 (CYP2B6): slightly induce
induction of CYP3A4 (CYP3A4): slightly induce
inhibition of CYP2C19 (CYP2C19): reversible inhibitors

NC(=O)CS(=O)(=O)C(c1ccccc1)c1ccccc1 [modafinil sulfone]
inhibition of CYP2C19 (CYP2C19): reversible inhibitors

NCC(CC(=O)O)c1ccc(Cl)cc1 (stereo not drawn) [baclofen, 4-amino-3-(4-chlorophenyl)-butanoic acid]
pharmacokinetic interaction [2]: without significant pharmacokinetic interaction

Clc1ccc2nsnc2c1NC1=NCCN1 [Tizanidine, 5-chloro-4-(2-imidazolin-2-ylamino)-2,1,3-benzothiodiazole hydrochloride]
metabolizing enzyme (CYP1A2 [3]): metabolized by CYP1A2
pharmacokinetic interaction [2]: without significant pharmacokinetic interaction
antispastic effect compared with diazepam and baclofen (spasticity): as effective as other antispastic agents
tolerability compared with diazepam and baclofen (spasticity; especially incidence of debilitating muscle weakness): more favorable tolerability profile
